Experimental findings from patent EP4656642A1, “ESTROGEN RECEPTOR PROTEOLYSIS TARGETING CHIMERA COMPOUND AND USE THEREOF” (GAN & LEE PHARM CO., LTD, priority 2023, dated 2024) are described below.

Holding throughout (type): cell-based
Assay [1] deals with MCF-7 cells. The experiment in a line: Inhibition of cell proliferation of MCF-7 cells (CCK-8, 6 days). Conditions: 6 days of treatment, Table 4. The source says: Test Example 3 Inhibitory effect of the PROTAC compounds provided in the present disclosure on cell proliferation of MCF-7 cells
The complete medium required for MCF-7 cells (source ATCC) was DMEM (gibco, Product number :11995-065) basal medium containing 10% fetal bovine serum. MCF-7 cells were inoculated in 96-well plates at a density of 800 cells/well, and different concentrations of the PROTAC compounds 1-55 provided in the examples of the present disclosure and a positive control sample ARV-471 (source: Innochem) were prepared to treat the cells, and the cells were treated at 37°C in a cell culture incubator with 5% CO2 for 6 days. Cell viability was detected using a CCK-8 kit (Beyotime, Product number: C0040) according to the manufacturer's instructions. The IC50 values of each PROTAC compound after 6 days of treatment were calculated using GraphPadPrism software based on the inhibition rate, and the results are shown in Table 4. Table 4 IC50 values for inhibition of the proliferation of MCF-7 cells by the PROTAC compounds of the present disclosure and positive control sample

Assay [2] has as its target T1, ERα (Homo sapiens, UniProt P03372).
T1 sequence (P03372 1-595): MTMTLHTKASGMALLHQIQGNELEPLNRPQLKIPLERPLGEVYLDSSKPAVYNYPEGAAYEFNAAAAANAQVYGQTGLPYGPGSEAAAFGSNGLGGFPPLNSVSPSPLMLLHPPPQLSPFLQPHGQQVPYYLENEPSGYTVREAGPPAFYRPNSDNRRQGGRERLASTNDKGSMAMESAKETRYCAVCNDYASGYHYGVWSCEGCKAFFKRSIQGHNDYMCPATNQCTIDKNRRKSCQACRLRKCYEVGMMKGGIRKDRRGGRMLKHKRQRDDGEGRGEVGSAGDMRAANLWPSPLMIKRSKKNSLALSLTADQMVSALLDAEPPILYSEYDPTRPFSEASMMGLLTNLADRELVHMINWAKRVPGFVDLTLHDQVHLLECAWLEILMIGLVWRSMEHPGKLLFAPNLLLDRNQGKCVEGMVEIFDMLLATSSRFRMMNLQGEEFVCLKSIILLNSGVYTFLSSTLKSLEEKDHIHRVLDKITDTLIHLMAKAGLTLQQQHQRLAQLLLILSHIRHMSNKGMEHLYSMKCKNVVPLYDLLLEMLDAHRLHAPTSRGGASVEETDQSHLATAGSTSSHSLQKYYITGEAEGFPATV
The experiment in a line: Degradation of ERα in MCF-7 cells (immunoblotting, 4 h). A digest of the protocol:
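Degradation rate reflects ERα band intensity, corrected to an internal reference protein, relative to control. Values come from Western blotting of lysates from MCF-7 cells exposed 4 h at 37°C to compounds at final concentrations of 0.15-1000nM.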

A further assay relates to T-47D cells. The experiment in a line: Inhibition of cell proliferation in T-47D cells (CCK-8, 6 days). Conditions: 6 days of treatment. A digest of the protocol:
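Viability read-out was CCK-8 after 6 days of compound treatment (37 °C, 5% CO2) across graded concentrations. Cells were T-47D seeded at 3,000 per well in 1640 medium plus 10% FBS. IC50 was calculated against proliferation.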

For assay [3], the target named is T1, ERα. The experiment in a line: Degradation of ERα in T-47D cells (immunoblotting, 4 h). Also on record: host or cells: T-47D. A digest of the protocol:
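ERα protein levels were assessed by immunoblot of RIPA lysates (with protease inhibitor) after 4 h exposure at 37°C. Compound was added in DMSO to T-47D cells at final concentrations of 0.15-1000 nM.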
On the technique in general: Immunoblotting shows a protein as a band on a membrane.

Assay [4] deals with MCF-7 cells. The experiment in a line: Inhibition of cell proliferation of MCF-7 cells (CCK-8, 9 days). A digest of the protocol:
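Read-out was CCK-8 viability after 9-day continuous exposure (37°C, 5% CO2) of MCF-7 cells plated at 800/well in 10% FBS DMEM across several compound concentrations. Values are proliferation IC50s.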

[5] abbreviates: treated for 9 days, CCK-8 kit (Table 6).

The IC50 is the point on the concentration scale where inhibition reaches its midpoint. For `O=C1CC[C@H](N2Cc3cc(N4CCN(CC5CCN(c6ccc([C@@H]7c8ccc(O)cc8CC[C@@H]7c7ccccc7)cc6)CC5)CC4)ccc3C2=O)C(=O)N1` [ARV-471, reference compound], the 50% inhibitory concentration (IC50) in the assay with MCF-7 cells [1] (Homo sapiens, MCF7, 144 h) is 17900 nM; in the assay on T-47D cells (Homo sapiens, T47D, 144 h, Table 2), 1.7 nM; in the assay with MCF-7 cells [4] (Homo sapiens, MCF7, 216 h, 9 days of treatment, CCK-8, Table 5) it was 70 nM. Moreover, the “Degradation rate (%) of ERα in MCF-7 cells” value at ERα [2] (1nM compound) is on record as 38%; on ERα [2] (10nM compound), 76%. The “Degradation rate (%) of ERα in T-47D cells” value amounted to 61% at ERα [3] (1nM compound) and 85% at ERα [3] (10nM compound).

`O=C1CCC(N2Cc3cc4c(cc3C2=O)CCC2(CCN(C3C[C@@H]5CN(c6ccc(C7c8ccc(O)cc8CCC7c7ccccc7)cc6)C[C@@H]5C3)CC2)O4)C(=O)N1` (stereo partly drawn) [A29]: the values for the IC50 with MCF-7 cells [1] and in the assay with T-47D cells (Table 2) were 5480 nM and 215 nM, respectively. Further, the “Degradation rate (%) of ERα in MCF-7 cells” value at ERα [2] (10nM compound) came out at 8%. Also, on ERα [3] (10nM compound), the “Degradation rate (%) of ERα in T-47D cells” value is listed as -2%.

Turning to `O=C1CCC(N2C(=O)c3cc4c(cc3C2=O)OCC2(CCN(C3CCC5(CC3)CCN(c3ccc(C6c7ccc(O)cc7CCC6c6ccccc6)cc3)CC5)CC2)C4)C(=O)N1` (stereo not drawn) [A15], the IC50 stood at 1190 nM in the assay on MCF-7 cells [1] and 63 nM in the assay with T-47D cells (Table 2). The “Degradation rate (%) of ERα in MCF-7 cells” value at ERα [2] (10nM compound) was -2%. Besides, on ERα [3] (10nM compound), the “Degradation rate (%) of ERα in T-47D cells” value is reported as 16%.

In the case of `O=C1CCC(N2C(=O)c3cc4c(cc3C2=O)C2(CCN(C3CCC5(CC3)CN(c3ccc(C6c7ccc(O)cc7CCC6c6ccccc6)cc3)C5)CC2)CO4)C(=O)N1` (stereo not drawn) [A20], the values for the IC50 in the assay on MCF-7 cells [1] and with T-47D cells (Table 2) were 11600 nM and 25 nM, respectively. The “Degradation rate (%) of ERα in MCF-7 cells” value on ERα [2] (10nM compound) worked out at 18%. Also, the “Degradation rate (%) of ERα in T-47D cells” value at ERα [3] (10nM compound) stood at 36%.

On to `O=C1CCC(N2C(=O)c3cc4c(cc3C2=O)OC2(CC4)CCN(C3CCC4(CC3)CCN(c3ccc(C5c6ccc(O)cc6CCC5c5ccccc5)cc3)CC4)CC2)C(=O)N1` (stereo not drawn) [A12], for which the IC50 was found to be 4600 nM in the assay with MCF-7 cells [1], 127 nM with T-47D cells (Table 2), 127 nM in the assay on T-47D cells (Table 3) and 4.6 nM in the assay with MCF-7 cells [4] (setting [5]). In addition, on ERα [2] (10nM compound), the “Degradation rate (%) of ERα in MCF-7 cells” value came to 4%. The “Degradation rate (%) of ERα in T-47D cells” value at ERα [3] (10nM compound) is recorded as -1%.

As to `O=C1CCC(N2Cc3cc4c(cc3C2=O)OCC2(CCN(C3CCC5(CC3)CN(c3ccc(C6c7ccc(O)cc7CCC6c6ccccc6)cc3)C5)CC2)O4)C(=O)N1` (stereo not drawn) [A27], the values for the IC50 in the assay with MCF-7 cells [1] and in the assay on T-47D cells (Table 2) were 4360 nM and 15 nM, respectively. Also, the “Degradation rate (%) of ERα in MCF-7 cells” value at ERα [2] (10nM compound) is on record as 4%. In addition, the “Degradation rate (%) of ERα in T-47D cells” value at ERα [3] (10nM compound) is recorded as -15%.

Turning to `O=C1CCC(N2C(=O)c3cc4c(cc3C2=O)C2(CCN(CC3CCN(c5ccc(C6c7ccc(O)cc7CCC6c6ccccc6)cc5)CC3)CC2)CO4)C(=O)N1` (stereo not drawn) [A8], the IC50 in the assay with MCF-7 cells [1] was 19000 nM; in the assay with T-47D cells (Table 2), 104 nM; in the assay with T-47D cells (Table 3), 104 nM; in the assay with MCF-7 cells [4] (setting [5]), 19 nM. Further, the “Degradation rate (%) of ERα in MCF-7 cells” value at ERα [2] (10nM compound) is -42%. In addition, at ERα [3] (10nM compound), the “Degradation rate (%) of ERα in T-47D cells” value is on record as -22%.

Regarding `O=C1CCC(N2C(=O)c3cc4c(cc3C2=O)OC2(CCN(C3CCC5(CC3)CCN(c3ccc(C6c7ccc(O)cc7CCC6c6ccccc6)cc3)CC5)CC2)C4)C(=O)N1` (stereo not drawn) [A25], the results for the IC50 in the assay on MCF-7 cells [1] and in the assay on T-47D cells (Table 2) were 23400 nM and 20 nM, respectively. Moreover, the “Degradation rate (%) of ERα in MCF-7 cells” value at ERα [2] (10nM compound) worked out at 8%. Further, the “Degradation rate (%) of ERα in T-47D cells” value on ERα [3] (10nM compound) is -1%.

For `O=C1CCC(N2C(=O)c3cc4c(cc3C2=O)OCC2(CCN(C3CC5(CCN(c6ccc(C7c8ccc(O)cc8CCC7c7ccccc7)cc6)CC5)C3)CC2)C4)C(=O)N1` (stereo not drawn) [A13], the results for the IC50 in the assay with MCF-7 cells [1] and in the assay on T-47D cells (Table 2) were 24500 nM and 31 nM, respectively. The “Degradation rate (%) of ERα in MCF-7 cells” value at ERα [2] (10nM compound) was -9%. Also, the “Degradation rate (%) of ERα in T-47D cells” value at ERα [3] (10nM compound) is 12%.

With `O=C1CCC(N2Cc3cc4c(cc3C2=O)OC2(CC4)CCN(C3CCC4(CC3)CCN(c3ccc(C5c6ccc(O)cc6CCC5c5ccccc5)cc3)CC4)CC2)C(=O)N1` (stereo not drawn) [A22], the IC50 in the assay on MCF-7 cells [1] amounted to 940 nM; in the assay on T-47D cells (Table 2) it was 57 nM. In addition, the “Degradation rate (%) of ERα in MCF-7 cells” value at ERα [2] (10nM compound) stood at 13%. The “Degradation rate (%) of ERα in T-47D cells” value at ERα [3] (10nM compound) was 19%.

Regarding `O=C1CCC(N2C(=O)c3cc4c(cc3C2=O)OC2(CC4)CCN(c3ccc(C4c5ccc(O)cc5CCC4c4ccccc4)cc3)CC2)C(=O)N1` (stereo not drawn) [A7], the half-maximal inhibitory concentration (IC50) amounted to 99900 nM with MCF-7 cells [1] and 167 nM in the assay with T-47D cells (Table 2). Further, the “Degradation rate (%) of ERα in MCF-7 cells” value on ERα [2] (10nM compound) is recorded as -29%. Moreover, the “Degradation rate (%) of ERα in T-47D cells” value on ERα [3] (10nM compound) is listed as -14%.
